Experiment [1] deals with Serine/threonine-protein kinase 26 (Homo sapiens) (UniProt Q9P289).
The target in experiment [2] is T1, Serine/threonine-protein kinase PLK4 (Homo sapiens) (UniProt O00444).
T1 sequence (whole entry): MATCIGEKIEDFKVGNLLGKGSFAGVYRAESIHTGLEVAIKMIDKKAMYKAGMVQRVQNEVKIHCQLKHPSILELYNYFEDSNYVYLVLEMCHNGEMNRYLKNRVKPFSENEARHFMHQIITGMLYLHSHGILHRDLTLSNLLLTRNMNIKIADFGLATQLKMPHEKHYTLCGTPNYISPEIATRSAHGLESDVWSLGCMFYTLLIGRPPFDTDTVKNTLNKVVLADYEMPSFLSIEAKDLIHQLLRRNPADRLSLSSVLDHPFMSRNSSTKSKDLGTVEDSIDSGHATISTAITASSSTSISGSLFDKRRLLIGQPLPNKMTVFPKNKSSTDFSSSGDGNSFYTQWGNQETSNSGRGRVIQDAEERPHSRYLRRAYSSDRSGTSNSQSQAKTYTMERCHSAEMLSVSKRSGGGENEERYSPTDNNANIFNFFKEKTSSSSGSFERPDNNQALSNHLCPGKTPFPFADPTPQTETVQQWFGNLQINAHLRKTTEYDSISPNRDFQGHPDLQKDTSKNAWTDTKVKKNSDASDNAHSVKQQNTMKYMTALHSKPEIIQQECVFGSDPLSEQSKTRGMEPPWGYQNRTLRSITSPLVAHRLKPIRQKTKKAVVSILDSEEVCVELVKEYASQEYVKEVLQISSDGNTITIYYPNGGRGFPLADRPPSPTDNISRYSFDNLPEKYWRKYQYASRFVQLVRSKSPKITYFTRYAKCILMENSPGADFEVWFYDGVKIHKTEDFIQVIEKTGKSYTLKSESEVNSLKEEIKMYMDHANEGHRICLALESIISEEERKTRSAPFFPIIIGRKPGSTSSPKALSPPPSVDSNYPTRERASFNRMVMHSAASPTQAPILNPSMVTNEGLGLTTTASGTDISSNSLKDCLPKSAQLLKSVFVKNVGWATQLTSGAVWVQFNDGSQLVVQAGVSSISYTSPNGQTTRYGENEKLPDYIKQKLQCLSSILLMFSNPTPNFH

Experiment [3] has as its target Serine/threonine-protein kinase 16 (Homo sapiens) (UniProt O75716).
The target of experiment [4] is T2, Serine/threonine-protein kinase VRK3 (Homo sapiens) (UniProt Q8IV63).
T2 sequence (whole entry): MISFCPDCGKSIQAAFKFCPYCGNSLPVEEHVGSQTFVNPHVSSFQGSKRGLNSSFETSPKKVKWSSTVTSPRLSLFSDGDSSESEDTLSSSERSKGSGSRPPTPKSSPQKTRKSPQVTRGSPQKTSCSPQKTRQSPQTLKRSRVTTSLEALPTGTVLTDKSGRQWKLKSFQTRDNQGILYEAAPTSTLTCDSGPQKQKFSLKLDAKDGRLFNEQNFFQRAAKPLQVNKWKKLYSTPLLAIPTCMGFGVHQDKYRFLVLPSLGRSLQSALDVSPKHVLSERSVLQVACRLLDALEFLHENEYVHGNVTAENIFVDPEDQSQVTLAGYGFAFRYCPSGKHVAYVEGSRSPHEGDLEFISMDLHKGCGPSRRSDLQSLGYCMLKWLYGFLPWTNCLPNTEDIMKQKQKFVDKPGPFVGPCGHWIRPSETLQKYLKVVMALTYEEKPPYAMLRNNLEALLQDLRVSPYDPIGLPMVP

Experiment [5] deals with T3, Serine/threonine-protein kinase Nek2 (Homo sapiens) (UniProt P51955).
T3 sequence (whole entry): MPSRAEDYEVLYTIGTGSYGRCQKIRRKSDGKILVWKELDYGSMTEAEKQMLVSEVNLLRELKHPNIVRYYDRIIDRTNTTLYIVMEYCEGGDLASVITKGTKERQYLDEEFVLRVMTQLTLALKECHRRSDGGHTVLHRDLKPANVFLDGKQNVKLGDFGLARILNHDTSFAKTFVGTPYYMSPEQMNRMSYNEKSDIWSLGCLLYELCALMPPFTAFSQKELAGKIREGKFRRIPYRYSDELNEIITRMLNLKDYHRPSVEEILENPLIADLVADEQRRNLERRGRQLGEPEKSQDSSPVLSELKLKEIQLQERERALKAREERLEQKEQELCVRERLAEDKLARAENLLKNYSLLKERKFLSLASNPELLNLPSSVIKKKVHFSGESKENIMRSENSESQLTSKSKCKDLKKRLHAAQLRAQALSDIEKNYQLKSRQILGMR

For experiment [6], the target named is Serine/threonine-protein kinase RIO2 (Homo sapiens) (UniProt Q9BVS4).
Experiment [7] deals with T4, Dual specificity mitogen-activated protein kinase kinase 6 (Homo sapiens) (UniProt P52564).
T4 sequence (whole entry): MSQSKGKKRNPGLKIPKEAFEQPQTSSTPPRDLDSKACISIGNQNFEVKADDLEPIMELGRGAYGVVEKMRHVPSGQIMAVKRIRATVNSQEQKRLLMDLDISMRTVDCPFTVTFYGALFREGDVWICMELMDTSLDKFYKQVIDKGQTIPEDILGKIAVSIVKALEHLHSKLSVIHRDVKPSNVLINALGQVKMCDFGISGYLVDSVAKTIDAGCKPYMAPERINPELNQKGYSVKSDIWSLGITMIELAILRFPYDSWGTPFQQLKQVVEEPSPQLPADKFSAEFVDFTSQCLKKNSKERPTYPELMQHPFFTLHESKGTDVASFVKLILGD

In experiment [8] the target is 5'-AMP-activated protein kinase catalytic subunit alpha-2 (Homo sapiens) (UniProt P54646).
In experiment [9] the target is Calcium/calmodulin-dependent protein kinase type 1D (Homo sapiens) (UniProt Q8IU85).
Experiment [10] has as its target Dual specificity protein kinase CLK2 (Homo sapiens) (UniProt P49760).
Experiment [11] addresses Serine/threonine-protein kinase OSR1 (Homo sapiens) (UniProt O95747).
Experiment [12] deals with Calcium/calmodulin-dependent protein kinase type 1G (Homo sapiens) (UniProt Q96NX5).
Experiment [13] has as its target Cyclin-dependent kinase 2 (Homo sapiens, UniProt P24941).
In experiment [14] the target is Serine/threonine-protein kinase PAK 5 (Homo sapiens) (UniProt Q9P286).
Experiment [15] deals with Serine/threonine-protein kinase 25 (Homo sapiens) (UniProt O00506).

SMILES strings stand for the structures.

Experimental findings from ChEMBL document CHEMBL1145498, “A systematic interaction map of validated kinase inhibitors with Ser/Thr kinases” (Proc Natl Acad Sci U S A, 2007) are described below.

As a reminder, the ΔTm is the shift of the melting midpoint relative to a reference.

Chain of Serine/threonine-protein kinase 25 (Homo sapiens) (O00506 whole entry, looked up): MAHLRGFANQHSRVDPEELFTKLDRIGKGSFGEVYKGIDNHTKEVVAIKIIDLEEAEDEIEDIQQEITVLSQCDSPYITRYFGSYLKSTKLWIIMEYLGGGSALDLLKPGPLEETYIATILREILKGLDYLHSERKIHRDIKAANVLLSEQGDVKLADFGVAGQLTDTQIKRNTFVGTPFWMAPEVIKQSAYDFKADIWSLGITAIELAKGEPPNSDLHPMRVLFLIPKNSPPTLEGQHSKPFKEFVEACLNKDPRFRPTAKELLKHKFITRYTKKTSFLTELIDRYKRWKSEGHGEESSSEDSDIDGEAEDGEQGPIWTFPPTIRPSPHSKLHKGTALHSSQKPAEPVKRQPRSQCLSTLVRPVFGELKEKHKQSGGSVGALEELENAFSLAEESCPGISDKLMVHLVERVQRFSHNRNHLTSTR
Chain of Serine/threonine-protein kinase 16 (Homo sapiens) (O75716 whole entry): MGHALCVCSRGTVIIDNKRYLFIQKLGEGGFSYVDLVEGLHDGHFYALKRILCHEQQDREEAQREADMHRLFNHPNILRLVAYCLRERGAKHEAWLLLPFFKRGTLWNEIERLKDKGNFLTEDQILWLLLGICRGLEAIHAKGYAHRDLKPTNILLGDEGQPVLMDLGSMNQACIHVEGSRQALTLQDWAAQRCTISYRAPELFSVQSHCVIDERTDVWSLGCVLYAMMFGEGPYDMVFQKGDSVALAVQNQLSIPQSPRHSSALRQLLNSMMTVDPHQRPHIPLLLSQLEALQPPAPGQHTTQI
Chain of Calcium/calmodulin-dependent protein kinase type 1G (Homo sapiens) (Q96NX5 whole entry): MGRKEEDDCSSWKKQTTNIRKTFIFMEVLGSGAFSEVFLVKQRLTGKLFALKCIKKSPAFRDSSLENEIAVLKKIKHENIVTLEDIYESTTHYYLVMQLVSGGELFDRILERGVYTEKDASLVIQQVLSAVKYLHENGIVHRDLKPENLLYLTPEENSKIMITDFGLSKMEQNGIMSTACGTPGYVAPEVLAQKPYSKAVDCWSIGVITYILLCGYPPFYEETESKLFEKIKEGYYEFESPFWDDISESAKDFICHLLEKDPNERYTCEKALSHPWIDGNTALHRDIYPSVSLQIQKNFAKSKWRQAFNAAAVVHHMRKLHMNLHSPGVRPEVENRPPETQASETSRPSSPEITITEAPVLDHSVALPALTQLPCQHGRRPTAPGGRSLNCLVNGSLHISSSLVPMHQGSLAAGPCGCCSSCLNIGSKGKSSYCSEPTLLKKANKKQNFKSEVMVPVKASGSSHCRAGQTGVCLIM
Chain of Serine/threonine-protein kinase 26 (Homo sapiens) (Q9P289 2-416 limits assumed): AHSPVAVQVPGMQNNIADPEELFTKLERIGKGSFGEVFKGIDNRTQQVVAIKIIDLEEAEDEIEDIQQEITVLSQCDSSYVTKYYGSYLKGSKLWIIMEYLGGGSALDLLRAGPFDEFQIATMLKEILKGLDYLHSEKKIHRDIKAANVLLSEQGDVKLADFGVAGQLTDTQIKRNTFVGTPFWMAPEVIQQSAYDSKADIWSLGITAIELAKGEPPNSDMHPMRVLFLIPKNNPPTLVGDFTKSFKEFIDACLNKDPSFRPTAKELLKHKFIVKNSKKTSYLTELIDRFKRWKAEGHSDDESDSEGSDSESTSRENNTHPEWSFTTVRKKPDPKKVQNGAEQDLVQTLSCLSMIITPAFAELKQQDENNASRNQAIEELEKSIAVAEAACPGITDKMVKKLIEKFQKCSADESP
Chain of Serine/threonine-protein kinase OSR1 (Homo sapiens) (O95747 2-527 limits assumed): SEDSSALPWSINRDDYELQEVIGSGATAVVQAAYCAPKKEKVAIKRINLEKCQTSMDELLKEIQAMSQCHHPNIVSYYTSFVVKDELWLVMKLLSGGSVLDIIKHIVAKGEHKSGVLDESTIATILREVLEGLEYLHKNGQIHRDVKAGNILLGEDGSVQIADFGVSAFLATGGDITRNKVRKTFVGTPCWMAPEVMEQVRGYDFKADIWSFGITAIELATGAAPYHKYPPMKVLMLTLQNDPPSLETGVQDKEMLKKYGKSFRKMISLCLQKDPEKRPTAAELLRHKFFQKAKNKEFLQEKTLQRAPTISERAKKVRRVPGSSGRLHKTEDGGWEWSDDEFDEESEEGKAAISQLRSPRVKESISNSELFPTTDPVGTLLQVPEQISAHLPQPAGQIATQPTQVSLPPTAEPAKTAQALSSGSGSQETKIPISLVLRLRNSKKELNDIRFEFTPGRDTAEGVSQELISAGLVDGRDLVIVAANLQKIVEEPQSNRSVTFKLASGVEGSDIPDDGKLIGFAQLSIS
Chain of Dual specificity protein kinase CLK2 (Homo sapiens) (P49760 whole entry, looked up): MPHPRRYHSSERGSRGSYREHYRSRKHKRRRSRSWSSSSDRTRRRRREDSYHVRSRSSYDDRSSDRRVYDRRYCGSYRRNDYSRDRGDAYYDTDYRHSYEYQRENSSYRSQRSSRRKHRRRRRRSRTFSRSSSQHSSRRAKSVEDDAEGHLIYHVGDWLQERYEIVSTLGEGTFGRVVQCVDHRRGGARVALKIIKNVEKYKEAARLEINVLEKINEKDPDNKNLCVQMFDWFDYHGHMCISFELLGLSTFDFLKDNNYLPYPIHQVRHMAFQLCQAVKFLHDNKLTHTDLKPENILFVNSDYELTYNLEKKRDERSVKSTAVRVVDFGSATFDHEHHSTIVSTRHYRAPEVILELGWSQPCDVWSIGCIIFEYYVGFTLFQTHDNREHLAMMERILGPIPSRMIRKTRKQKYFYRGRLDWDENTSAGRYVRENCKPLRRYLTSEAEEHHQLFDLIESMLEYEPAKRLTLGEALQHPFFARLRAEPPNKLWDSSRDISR
Chain of 5'-AMP-activated protein kinase catalytic subunit alpha-2 (Homo sapiens) (P54646 whole entry, looked up): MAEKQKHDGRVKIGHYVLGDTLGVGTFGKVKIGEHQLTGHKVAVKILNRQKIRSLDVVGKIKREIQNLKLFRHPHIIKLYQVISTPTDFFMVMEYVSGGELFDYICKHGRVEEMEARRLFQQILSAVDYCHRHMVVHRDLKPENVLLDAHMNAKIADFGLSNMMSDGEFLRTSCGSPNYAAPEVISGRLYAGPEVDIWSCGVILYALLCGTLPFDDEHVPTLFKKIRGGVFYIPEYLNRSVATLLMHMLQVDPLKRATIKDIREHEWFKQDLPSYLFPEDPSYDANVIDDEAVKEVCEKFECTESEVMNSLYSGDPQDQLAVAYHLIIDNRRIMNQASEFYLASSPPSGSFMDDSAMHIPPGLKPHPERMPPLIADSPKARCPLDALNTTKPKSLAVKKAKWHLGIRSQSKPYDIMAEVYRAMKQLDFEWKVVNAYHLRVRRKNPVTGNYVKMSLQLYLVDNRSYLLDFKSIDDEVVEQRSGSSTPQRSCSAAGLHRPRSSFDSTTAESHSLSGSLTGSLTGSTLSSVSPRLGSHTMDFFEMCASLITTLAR
Chain of Serine/threonine-protein kinase PAK 5 (Homo sapiens) (Q9P286 whole entry, looked up): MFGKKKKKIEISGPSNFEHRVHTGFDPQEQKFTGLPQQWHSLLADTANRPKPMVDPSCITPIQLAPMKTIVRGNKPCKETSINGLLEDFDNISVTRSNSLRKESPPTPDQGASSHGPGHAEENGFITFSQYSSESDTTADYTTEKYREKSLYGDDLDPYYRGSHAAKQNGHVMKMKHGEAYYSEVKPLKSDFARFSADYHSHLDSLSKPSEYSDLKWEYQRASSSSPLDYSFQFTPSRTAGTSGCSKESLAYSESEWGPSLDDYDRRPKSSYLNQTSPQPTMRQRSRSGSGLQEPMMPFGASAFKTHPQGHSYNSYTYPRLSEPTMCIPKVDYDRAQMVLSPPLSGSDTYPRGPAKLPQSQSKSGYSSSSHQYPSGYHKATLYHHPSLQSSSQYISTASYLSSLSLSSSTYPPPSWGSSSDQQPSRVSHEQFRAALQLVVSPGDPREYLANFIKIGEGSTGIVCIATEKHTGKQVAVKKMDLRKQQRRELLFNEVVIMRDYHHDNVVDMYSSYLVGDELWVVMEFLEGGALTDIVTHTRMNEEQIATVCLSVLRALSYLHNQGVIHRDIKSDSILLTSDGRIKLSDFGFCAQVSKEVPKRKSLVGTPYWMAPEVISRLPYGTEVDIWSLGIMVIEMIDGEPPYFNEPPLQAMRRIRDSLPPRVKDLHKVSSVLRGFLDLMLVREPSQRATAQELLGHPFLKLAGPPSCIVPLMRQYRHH
Chain of Calcium/calmodulin-dependent protein kinase type 1D (Homo sapiens) (Q8IU85 whole entry, looked up): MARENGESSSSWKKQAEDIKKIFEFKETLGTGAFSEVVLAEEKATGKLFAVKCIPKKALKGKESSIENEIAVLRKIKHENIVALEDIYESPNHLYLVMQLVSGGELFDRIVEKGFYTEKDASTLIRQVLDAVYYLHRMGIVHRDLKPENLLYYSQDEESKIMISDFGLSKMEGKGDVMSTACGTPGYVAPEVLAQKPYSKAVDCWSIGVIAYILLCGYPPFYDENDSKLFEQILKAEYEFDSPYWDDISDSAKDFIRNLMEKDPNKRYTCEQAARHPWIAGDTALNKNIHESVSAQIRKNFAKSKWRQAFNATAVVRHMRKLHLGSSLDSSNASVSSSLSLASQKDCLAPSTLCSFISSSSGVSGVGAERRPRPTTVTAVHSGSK
Chain of Serine/threonine-protein kinase RIO2 (Homo sapiens) (Q9BVS4 whole entry, looked up): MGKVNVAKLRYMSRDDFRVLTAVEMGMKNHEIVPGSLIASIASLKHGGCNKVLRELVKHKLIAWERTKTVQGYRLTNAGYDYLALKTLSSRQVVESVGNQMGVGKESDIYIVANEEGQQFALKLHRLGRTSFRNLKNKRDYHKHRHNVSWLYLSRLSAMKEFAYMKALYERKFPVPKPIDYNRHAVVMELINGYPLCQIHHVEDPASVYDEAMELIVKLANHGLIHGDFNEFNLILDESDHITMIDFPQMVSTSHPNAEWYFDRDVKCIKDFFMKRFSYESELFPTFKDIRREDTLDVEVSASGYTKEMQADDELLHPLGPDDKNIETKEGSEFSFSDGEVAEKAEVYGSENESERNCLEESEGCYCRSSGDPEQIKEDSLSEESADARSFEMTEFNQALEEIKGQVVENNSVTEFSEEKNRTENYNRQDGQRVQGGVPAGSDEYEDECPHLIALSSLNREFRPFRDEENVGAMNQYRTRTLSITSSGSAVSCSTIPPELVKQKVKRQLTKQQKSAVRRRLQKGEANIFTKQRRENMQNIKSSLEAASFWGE

For the compound `Cc1cc2ncc(-c3ccccc3)nc2cc1C`, the ΔTm is -0.5 °C in experiment [1]; 0.1 °C in [2]; 0.5 °C in [3]; 1.1 °C in experiment [4]; 2.1 °C in experiment [5]; -0.5 °C in [6]. For the same compound, the shift in melting temperature (ΔTm) in experiment [7] is 0.3 °C; in experiment [8], -1 °C; in [9], 0.6 °C; in experiment [10] it was 0.7 °C; in experiment [11], 0.5 °C; in experiment [12], 0.7 °C. The ΔTm turned out to be 0.3 °C in [13], 0.8 °C in experiment [14] and 0.3 °C in experiment [15].
On to `CN(C)c1ccc(CC2C(=O)Nc3ccccc32)cc1` (stereo not given), for which the ΔTm is 0.7 °C in [1]; 2.8 °C in experiment [2]; 1.9 °C in [3]; 0.1 °C in experiment [4]; -0.5 °C in experiment [5]; 0.9 °C in experiment [6]. Moreover, the ΔTm in experiment [7] is 0.5 °C; in experiment [8] it was 0.3 °C; in [9], 0 °C; in experiment [10], 1.7 °C; in experiment [11], -0.6 °C; in experiment [12], -0.2 °C. In addition, the thermal shift (ΔTm) in experiment [13] came out at 1 °C; in experiment [14], 0.3 °C; in experiment [15], 2.4 °C.
With `Nc1ncnc2c1c(I)cn2[C@@H]1O[C@H](CO)[C@@H](O)[C@H]1O`, the shift in melting temperature (ΔTm) was found to be 1.4 °C in [1]; 2.9 °C in [2]; 3.9 °C in experiment [3]; 0.1 °C in [4]; 0.4 °C in experiment [5]; 1.7 °C in [6]. The ΔTm in experiment [7] amounted to 2.7 °C; in experiment [8], 1 °C; in experiment [9] it was 0.2 °C; in experiment [10], 5.6 °C; in experiment [11], 2.4 °C; in experiment [12], 0.2 °C. For the same compound, the thermal shift (ΔTm) worked out at 2.9 °C in experiment [13], 0.7 °C in experiment [14] and 4.2 °C in [15].
With `Oc1ccc(-c2nc(-c3ccc(F)cc3)c(-c3ccncc3)[nH]2)cc1`, the ΔTm in [1] was 0 °C; in experiment [2], 1.1 °C; in experiment [3] it was 0.5 °C; in experiment [4], 0.3 °C; in experiment [5], 0.2 °C; in experiment [6], -0.3 °C. In addition, the thermal shift (ΔTm) in experiment [7] is 0.3 °C; in [8], -0.7 °C; in experiment [9] it was -0.1 °C; in [10], 0.1 °C; in experiment [11], 0.9 °C; in experiment [12], -0.1 °C. The figures for the ΔTm in experiment [13], in [14] and in experiment [15] were 0.4 °C, 0.5 °C and 0.5 °C, respectively.
With `O=c1ccc2ccc(O)c(O)c2o1` [DAPHNETIN], the ΔTm in experiment [1] was -0.4 °C; in [2] it was 0.3 °C; in experiment [3], 0.1 °C; in [4], -0.1 °C; in [5], 0.7 °C; in experiment [6], 0.7 °C. Moreover, the ΔTm is 0.1 °C in experiment [7]; -0.1 °C in experiment [8]; 0.1 °C in experiment [9]; 0.1 °C in [10]; 0.1 °C in [11]; 0 °C in experiment [12]. For the same compound, the thermal shift (ΔTm) was 0.7 °C in [13], -0.1 °C in experiment [14] and -0.5 °C in experiment [15].
For the compound `O=C1Nc2ccc(I)cc2/C1=C\c1cc(Br)c(O)c(Br)c1`, the ΔTm was -0.4 °C in [1]; 1.3 °C in [2]; 1 °C in [3]; -1.6 °C in experiment [4]; -2.2 °C in [5]; -0.4 °C in experiment [6]. The thermal shift (ΔTm) in [7] is 1.6 °C; in experiment [8], 1 °C; in [9] it was -0.1 °C; in [10], 1.2 °C; in experiment [11], -0.4 °C; in [12] it was -1.8 °C. The shift in melting temperature (ΔTm) is 1.2 °C in [13], 1 °C in experiment [14] and 0.6 °C in experiment [15].
Take `Oc1cccc(-c2nc(N3CCOCC3)c3oc4ncccc4c3n2)c1`: the ΔTm in [1] was 0.2 °C; in [2], 0.4 °C; in experiment [3], 0.3 °C; in experiment [4], 0.2 °C; in experiment [5] it was 0.5 °C; in experiment [6] it was -0.3 °C. Besides, the shift in melting temperature (ΔTm) in experiment [7] is 0 °C; in experiment [8], -0.1 °C; in [9], 0.4 °C; in experiment [10], 0 °C; in [11] it was 2 °C; in experiment [12], 0.1 °C. For the same compound, the ΔTm in [13] was 0.4 °C; in experiment [14], 0.8 °C; in experiment [15] it was -0.6 °C.
As for `O=c1cc(N2CCOCC2)oc2c(-c3ccccc3)cccc12`, the ΔTm in experiment [1] was -0.3 °C; in [2], 0 °C; in experiment [3], 0.4 °C; in [4], 0.6 °C; in [5], 1.3 °C; in experiment [6], 1 °C. The shift in melting temperature (ΔTm) in experiment [7] is 0.4 °C; in experiment [8] it was -0.9 °C; in [9], 0.3 °C; in experiment [10], 0.1 °C; in experiment [11], 0.4 °C; in experiment [12], 0.4 °C. Besides, the shift in melting temperature (ΔTm) in [13] stood at 0.4 °C; in experiment [14], 0.5 °C; in [15], 0 °C.
For `O=c1sn(Cc2ccccc2)c(=S)n1Cc1ccccc1`, the ΔTm in experiment [1] was 0.4 °C; in experiment [2], -0.2 °C; in [3], -0.4 °C; in [4] it was 0.9 °C; in [5] it was 1.5 °C; in experiment [6], 0.1 °C. The ΔTm in experiment [7] is 0.1 °C; in experiment [8], -0.9 °C; in experiment [9], 0.1 °C; in [10], -0.2 °C; in [11] it was 0.1 °C; in experiment [12], -0.1 °C. Moreover, the ΔTm came to 0.3 °C in [13], 0.5 °C in experiment [14] and 0.5 °C in experiment [15].
